Legend:
Assay in all cases: relative viability (nuclei count vs DMSO), 5 days (fraction); higher = more cells survive
Cabozantinib + Dasatinib = compound: COc1cc2nccc(Oc3ccc(NC(=O)C4(C(=O)Nc5ccc(F)cc5)CC4)cc3)c2cc1OC [Cabozantinib] + Cc1nc(Nc2ncc(C(=O)Nc3c(C)cccc3Cl)s2)cc(N2CCN(CCO)CC2)n1 [Dasatinib] (partner 0.075 µM)
Summary of the method: (§1)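 Relative viability equals treated-well nuclei counts divided by vehicle-well nuclei counts. Counts came from 4× images of lung cancer cell lines grown in 1536-well plates for 5 days after pin-tool dosing on the day after seeding. Dosing used one drug alone or a fixed anchor-drug dose plus five library-drug doses (not always all listed) in √10 steps, and values are medians of duplicate plates.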

[1] = compound: COc1cc2nccc(Oc3ccc(NC(=O)C4(C(=O)Nc5ccc(F)cc5)CC4)cc3)c2cc1OC [Cabozantinib] + CC(=O)Nc1cccc(-n2c(=O)n(C3CC3)c(=O)c3c(Nc4ccc(I)cc4F)n(C)c(=O)c(C)c32)c1 [Trametinib] (partner 0.02 µM)
Summary of the method: as §1

Kobe2602 + Lapatinib = compound: C1=CC(=CC=C1NC(=S)NNC2=C(C=C(C=C2[N+](=O)[O-])C(F)(F)F)[N+](=O)[O-])F [Kobe2602] + CS(=O)(=O)CCNCc1ccc(-c2ccc3ncnc(Nc4ccc(OCc5cccc(F)c5)c(Cl)c4)c3c2)o1 [Lapatinib] (partner 2 µM)
Summary of the method: as §1

Cabozantinib + Lapatinib = compound: COc1cc2nccc(Oc3ccc(NC(=O)C4(C(=O)Nc5ccc(F)cc5)CC4)cc3)c2cc1OC [Cabozantinib] + CS(=O)(=O)CCNCc1ccc(-c2ccc3ncnc(Nc4ccc(OCc5cccc(F)c5)c(Cl)c4)c3c2)o1 [Lapatinib] (partner 2 µM)
Summary of the method: as §1

Cell Line	relative viability (Cabozantinib + Dasatinib; first compound 0.02 µM)	relative viability (Cabozantinib + Dasatinib; first compound 0.06325 µM)	relative viability (Cabozantinib + Dasatinib; first compound 0.2 µM)	relative viability (Cabozantinib + Dasatinib; first compound 0.6325 µM)	relative viability (Cabozantinib + Dasatinib; first compound 2 µM)	relative viability ([1]; first compound 0.02 µM)	relative viability ([1]; first compound 0.06325 µM)	relative viability ([1]; first compound 0.2 µM)	relative viability ([1]; first compound 0.6325 µM)	relative viability ([1]; first compound 2 µM)	relative viability (Kobe2602 + Lapatinib; first compound 0.2 µM)	relative viability (Kobe2602 + Lapatinib; first compound 0.6325 µM)	relative viability (Kobe2602 + Lapatinib; first compound 2 µM)	relative viability (Kobe2602 + Lapatinib; first compound 6.325 µM)	relative viability (Kobe2602 + Lapatinib; first compound 20 µM)	relative viability (Cabozantinib + Lapatinib; first compound 0.02 µM)	relative viability (Cabozantinib + Lapatinib; first compound 0.06325 µM)	relative viability (Cabozantinib + Lapatinib; first compound 0.2 µM)	relative viability (Cabozantinib + Lapatinib; first compound 0.6325 µM)	relative viability (Cabozantinib + Lapatinib; first compound 2 µM)
SW 900	0.541	0.373	0.541	0.404	0.23	0.978	0.841	0.611	0.955	0.852										
NCI-H358	0.15	0.194	0.12	0.197	0.19	0.114	0.138	0.136	0.139	0.126	0.448	0.485	0.451	0.451	0.452	0.449	0.418	0.454	0.358	0.369
PC-3 [JPC-3]	0.89	1.21		1.1	0.993	0.696	0.755		0.736	0.739	0.488	0.457	0.434	0.477	0.495	0.398	0.473		0.407	0.391
NCI-H1651	0.336	0.39	0.327	0.335	0.396	0.915	0.86	0.845	0.774	0.82	0.871	0.981	0.836	0.775	0.764	0.812	0.794	0.71	0.786	0.754
HCC-827	0.327	0.31		0.262	0.242	0.529	0.586		0.504	0.476	0.189	0.211	0.231	0.177	0.227	0.19	0.233		0.183	0.179
HCC-366	0.43	0.664	0.536	0.584	0.628	0.409	0.334	0.35	0.285	0.272	1.05	1.16	0.963	0.979	0.968	1.08	1.07	1.05	1.13	0.957
HARA	0.251	0.312	0.221	0.296	0.233	0.749	0.772		0.883	0.633	0.677	0.844	0.689	0.697	0.814	0.582	0.806	0.856	0.809	0.639
NCI-H520	0.18	0.204	0.215	0.201	0.199	0.699	0.83	0.808	0.73	0.538	0.853	0.908	0.645	0.729	0.824	1.08	0.924	0.72	0.973	0.566
NCI-H1299											0.997	0.991	0.949	1.01	0.935	0.95	1.04	0.936	1.03	1.04
SW 1573	0.438	0.738	0.453	0.624	0.456	0.57	0.631	0.588	0.516	0.436	1.34	1.25	1.05	1.1	1.14	1.06	1.03	1.23	1.23	1.04
CAL-12T	0.324	0.341	0.354	0.327	0.221	0.331	0.357	0.33	0.371	0.365	0.676	0.717	0.681	0.627	0.696	0.708	0.653	0.701		0.529
COR-L 105	0.352	0.283		0.314	0.314	0.422	0.377	0.4	0.405	0.481	0.369	0.381	0.379	0.38	0.401	0.321	0.341		0.352	0.372
NCI-H3122	0.714	0.941	0.836	0.78	0.83	0.192	0.241	0.238	0.238	0.281	1.04	0.981	1	1.03	1.06	1.01	1.01	1.02	1.03	0.954
NCI-H2228	0.531	0.624	0.471	0.472	0.55	0.4	0.61	0.594	0.704	0.479	1.08	1.02	0.985	1.12	1.75	1.08	1.41	1.11	1	1.06
RERF-LC-KJ	0.84	0.77	0.763	0.853	0.923	0.948	0.815	0.781	0.811	0.928	0.851	0.842	0.809	0.697	0.831	0.904	0.894	0.784	0.776	0.815
NCI-H441	0.431	0.704	0.458	0.582	0.51	0.339	0.502	0.421	0.441	0.361										
A549											0.922	0.978	0.88	1.05	0.881	0.996	1.03	0.872	0.926	0.807
NCI-H2342	0.291	0.386	0.308	0.316	0.311	0.872	0.949	0.878	0.738	0.535										
NCI-H1623	0.483	0.606	0.486	0.486	0.568															
